Results reported in ChEMBL document CHEMBL4130413, “1-Aryl-1H- and 2-aryl-2H-1,2,3-triazole derivatives blockade P2X7 receptor in vitro and inflammatory response in vivo” (Eur J Med Chem, 2017).

Key:
[1] = target: T1, UDP-glucuronosyltransferase 1A4 (Homo sapiens, UniProt P22310); assay: Drug metabolism assessed as UGT1A4 (unknown origin)-mediated metabolite formation; format: ADME
T1 sequence (P22310 whole entry): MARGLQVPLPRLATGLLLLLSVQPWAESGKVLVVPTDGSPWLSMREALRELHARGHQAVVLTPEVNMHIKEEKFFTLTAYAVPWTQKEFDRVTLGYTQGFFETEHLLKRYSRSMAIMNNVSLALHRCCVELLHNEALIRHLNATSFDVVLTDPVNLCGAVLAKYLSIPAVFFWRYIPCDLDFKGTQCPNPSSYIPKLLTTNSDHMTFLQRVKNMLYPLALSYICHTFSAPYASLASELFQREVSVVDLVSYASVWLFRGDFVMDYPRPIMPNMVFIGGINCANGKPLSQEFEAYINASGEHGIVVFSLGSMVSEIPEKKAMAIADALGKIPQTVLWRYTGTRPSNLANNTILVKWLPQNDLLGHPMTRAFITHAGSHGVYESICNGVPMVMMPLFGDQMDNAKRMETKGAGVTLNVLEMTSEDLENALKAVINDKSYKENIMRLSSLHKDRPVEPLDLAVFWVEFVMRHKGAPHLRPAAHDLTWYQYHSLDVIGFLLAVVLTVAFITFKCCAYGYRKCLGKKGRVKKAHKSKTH

[2] = target: T2, UDP-glucuronosyltransferase 1A6 (Homo sapiens, UniProt P19224); assay: Drug metabolism assessed as UGT1A6 (unknown origin)-mediated metabolite formation; format: ADME
T2 sequence (P19224 whole entry): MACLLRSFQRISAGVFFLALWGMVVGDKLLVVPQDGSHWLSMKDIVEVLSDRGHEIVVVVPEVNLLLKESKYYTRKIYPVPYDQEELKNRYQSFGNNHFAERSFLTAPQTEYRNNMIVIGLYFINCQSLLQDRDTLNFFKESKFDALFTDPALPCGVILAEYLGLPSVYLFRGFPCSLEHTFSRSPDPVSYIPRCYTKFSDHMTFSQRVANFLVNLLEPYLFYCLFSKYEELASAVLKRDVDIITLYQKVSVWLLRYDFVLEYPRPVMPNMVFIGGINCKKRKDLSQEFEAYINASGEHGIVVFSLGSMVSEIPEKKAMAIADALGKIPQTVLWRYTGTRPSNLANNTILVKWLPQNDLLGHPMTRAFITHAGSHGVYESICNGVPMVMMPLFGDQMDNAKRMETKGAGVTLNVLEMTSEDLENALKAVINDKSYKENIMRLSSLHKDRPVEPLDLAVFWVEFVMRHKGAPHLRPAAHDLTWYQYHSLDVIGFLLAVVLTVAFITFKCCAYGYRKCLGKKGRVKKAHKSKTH

[3] = target: T3, UDP-glucuronosyltransferase 1A10 (Homo sapiens, UniProt Q9HAW8); assay: Drug metabolism assessed as UGT1A10 (unknown origin)-mediated metabolite formation; format: ADME
T3 sequence (Q9HAW8 whole entry): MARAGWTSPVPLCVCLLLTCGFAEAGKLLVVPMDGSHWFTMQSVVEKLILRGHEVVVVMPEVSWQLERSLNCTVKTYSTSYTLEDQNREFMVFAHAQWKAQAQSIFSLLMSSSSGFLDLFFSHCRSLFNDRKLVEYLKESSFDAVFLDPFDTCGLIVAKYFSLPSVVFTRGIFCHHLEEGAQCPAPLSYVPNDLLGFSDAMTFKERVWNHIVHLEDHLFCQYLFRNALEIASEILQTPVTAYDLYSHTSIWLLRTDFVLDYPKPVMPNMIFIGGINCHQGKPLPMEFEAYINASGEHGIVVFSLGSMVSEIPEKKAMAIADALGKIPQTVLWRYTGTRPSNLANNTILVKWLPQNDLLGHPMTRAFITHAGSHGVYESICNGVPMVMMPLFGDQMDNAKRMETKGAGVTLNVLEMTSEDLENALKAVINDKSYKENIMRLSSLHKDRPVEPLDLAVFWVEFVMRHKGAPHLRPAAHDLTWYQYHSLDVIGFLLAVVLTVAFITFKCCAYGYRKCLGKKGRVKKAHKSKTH

[4] = target: T4, UDP-glucuronosyltransferase 2B7 (Homo sapiens, UniProt P16662); assay: Drug metabolism assessed as UGT2B7 (unknown origin)-mediated metabolite formation; format: ADME
T4 sequence (P16662 whole entry): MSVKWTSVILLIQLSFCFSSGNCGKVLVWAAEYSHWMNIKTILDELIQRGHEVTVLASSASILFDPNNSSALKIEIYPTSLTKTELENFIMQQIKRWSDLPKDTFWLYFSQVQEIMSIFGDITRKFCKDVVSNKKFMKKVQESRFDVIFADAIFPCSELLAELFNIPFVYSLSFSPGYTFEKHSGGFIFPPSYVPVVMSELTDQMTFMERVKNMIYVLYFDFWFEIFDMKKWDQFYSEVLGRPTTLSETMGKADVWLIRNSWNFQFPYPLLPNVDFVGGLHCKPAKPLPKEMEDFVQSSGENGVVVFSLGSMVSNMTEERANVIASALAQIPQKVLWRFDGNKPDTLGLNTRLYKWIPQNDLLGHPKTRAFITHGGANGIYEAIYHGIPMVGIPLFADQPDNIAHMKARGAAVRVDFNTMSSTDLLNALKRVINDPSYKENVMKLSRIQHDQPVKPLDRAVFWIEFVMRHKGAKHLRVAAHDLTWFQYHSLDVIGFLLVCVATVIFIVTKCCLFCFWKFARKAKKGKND

[5] = target: T5, UDP-glucuronosyltransferase 2B15 (Homo sapiens, UniProt P54855); assay: Drug metabolism assessed as UGT2B15 (unknown origin)-mediated metabolite formation; format: ADME
T5 sequence (P54855 whole entry): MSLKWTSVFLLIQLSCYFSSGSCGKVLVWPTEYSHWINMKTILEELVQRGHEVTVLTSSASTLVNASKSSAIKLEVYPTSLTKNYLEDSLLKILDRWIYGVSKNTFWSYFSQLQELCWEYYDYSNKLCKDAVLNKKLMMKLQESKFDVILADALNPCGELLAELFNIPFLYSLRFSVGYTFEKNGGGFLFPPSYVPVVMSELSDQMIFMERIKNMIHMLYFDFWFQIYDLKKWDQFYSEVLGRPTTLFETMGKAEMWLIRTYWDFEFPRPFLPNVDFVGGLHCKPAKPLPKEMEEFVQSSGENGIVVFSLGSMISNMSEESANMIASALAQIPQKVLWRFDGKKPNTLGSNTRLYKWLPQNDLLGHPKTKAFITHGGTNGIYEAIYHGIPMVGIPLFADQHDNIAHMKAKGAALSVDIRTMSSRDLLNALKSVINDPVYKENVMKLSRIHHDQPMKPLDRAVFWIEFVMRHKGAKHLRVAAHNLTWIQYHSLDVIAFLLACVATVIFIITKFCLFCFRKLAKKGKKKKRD

Cytochrome P450 2C9 = Cytochrome P450 2C9 (Homo sapiens, UniProt P11712)
Description: Drug metabolism assessed as CYP2C9 (unknown origin)-mediated metabolite formation

Cytochrome P450 2D6 = Cytochrome P450 2D6 (Homo sapiens, UniProt P10635)
Description: Drug metabolism assessed as CYP2D6 (unknown origin)-mediated metabolite formation

Cytochrome P450 3A4 = Cytochrome P450 3A4 (Homo sapiens, UniProt P08684)
Chain of Cytochrome P450 3A4 (P08684 whole entry): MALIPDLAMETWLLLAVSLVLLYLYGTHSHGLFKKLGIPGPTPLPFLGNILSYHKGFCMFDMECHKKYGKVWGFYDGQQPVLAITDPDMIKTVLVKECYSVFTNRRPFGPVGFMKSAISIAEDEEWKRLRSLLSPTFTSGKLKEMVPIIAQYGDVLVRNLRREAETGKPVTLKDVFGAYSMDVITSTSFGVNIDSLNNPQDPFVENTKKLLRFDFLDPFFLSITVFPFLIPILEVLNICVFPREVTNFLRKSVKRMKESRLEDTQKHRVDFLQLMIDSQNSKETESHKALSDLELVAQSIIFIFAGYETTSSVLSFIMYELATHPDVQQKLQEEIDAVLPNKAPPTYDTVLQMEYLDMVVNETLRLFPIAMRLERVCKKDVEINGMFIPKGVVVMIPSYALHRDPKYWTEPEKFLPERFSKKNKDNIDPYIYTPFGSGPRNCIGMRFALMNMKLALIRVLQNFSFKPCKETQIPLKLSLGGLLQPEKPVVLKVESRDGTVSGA
Description: Drug metabolism assessed as CYP3A4 (unknown origin)-mediated metabolite formation

Chain of Cytochrome P450 2C9 (P11712 whole entry): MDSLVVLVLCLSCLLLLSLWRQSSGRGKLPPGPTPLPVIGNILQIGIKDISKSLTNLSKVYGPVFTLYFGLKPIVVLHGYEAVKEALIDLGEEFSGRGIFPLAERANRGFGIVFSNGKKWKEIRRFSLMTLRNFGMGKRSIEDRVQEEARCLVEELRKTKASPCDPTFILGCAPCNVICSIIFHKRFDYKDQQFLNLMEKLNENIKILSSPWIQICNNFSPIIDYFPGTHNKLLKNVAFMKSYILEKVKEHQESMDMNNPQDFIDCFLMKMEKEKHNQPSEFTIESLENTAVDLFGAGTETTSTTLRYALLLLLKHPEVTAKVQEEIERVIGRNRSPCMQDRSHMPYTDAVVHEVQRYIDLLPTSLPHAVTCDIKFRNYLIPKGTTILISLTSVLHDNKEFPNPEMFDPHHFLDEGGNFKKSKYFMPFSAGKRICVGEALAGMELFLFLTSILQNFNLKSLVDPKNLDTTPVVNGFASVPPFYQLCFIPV
Chain of Cytochrome P450 2D6 (P10635 whole entry): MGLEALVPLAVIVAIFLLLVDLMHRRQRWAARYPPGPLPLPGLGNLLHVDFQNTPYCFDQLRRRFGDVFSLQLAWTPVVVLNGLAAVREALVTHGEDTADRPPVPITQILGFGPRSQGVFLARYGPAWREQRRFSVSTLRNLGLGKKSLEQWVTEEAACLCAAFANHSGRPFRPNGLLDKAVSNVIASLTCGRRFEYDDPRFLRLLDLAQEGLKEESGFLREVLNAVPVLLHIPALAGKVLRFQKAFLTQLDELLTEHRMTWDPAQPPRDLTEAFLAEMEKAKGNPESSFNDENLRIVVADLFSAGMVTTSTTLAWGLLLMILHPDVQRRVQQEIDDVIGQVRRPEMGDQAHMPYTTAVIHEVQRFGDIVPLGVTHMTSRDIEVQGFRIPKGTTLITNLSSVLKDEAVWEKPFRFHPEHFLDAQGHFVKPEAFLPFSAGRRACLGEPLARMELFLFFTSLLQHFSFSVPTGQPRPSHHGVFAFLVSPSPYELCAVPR

| Compound | Drug metabolism [1] | Drug metabolism [2] | Drug metabolism [3] | Drug metabolism [4] | Drug metabolism [5] | Drug metabolism (Cytochrome P450 2C9) | Drug metabolism (Cytochrome P450 2D6) | Drug metabolism (Cytochrome P450 3A4) |
| --- | --- | --- | --- | --- | --- | --- | --- | --- |
| CC(C)Cc1ccc(C(C)C(=O)O)cc1 (centres undefined) [IBUPROFEN] | Metabolite_Notdetected | Metabolite_Detected | Metabolite_Notdetected | Metabolite_Detected | Metabolite_Notdetected | Metabolite_Detected | Metabolite_Notdetected | Metabolite_Notdetected |
| CCOCc1cn(-c2ccc(Cl)cc2)nn1 | Metabolite_Detected | Metabolite_Notdetected | Metabolite_Notdetected | Metabolite_Notdetected | Metabolite_Notdetected | Metabolite_Notdetected | Metabolite_Notdetected | Metabolite_Notdetected |
| O=C(O)Cc1ccccc1Nc1c(Cl)cccc1Cl [DICLOFENAC] | Metabolite_Notdetected | Metabolite_Notdetected | Metabolite_Notdetected | Metabolite_Detected | Metabolite_Notdetected | Metabolite_Detected | Metabolite_Notdetected | Metabolite_Notdetected |
| COc1ccc2cc([C@H](C)C(=O)O)ccc2c1 [NAPROXEN] | Metabolite_Notdetected | Metabolite_Detected | Metabolite_Notdetected | Metabolite_Detected | Metabolite_Notdetected |  |  |  |
